Measured values from paper PMC7180830, “Scaffold Hopping in Discovery of HIV-1 Non-Nucleoside Reverse Transcriptase Inhibitors: From CH(CN)-DABOs to CH(CN)-DAPYs” (Molecules, 2020).
Where two headings read alike, the source gives them in different places.

Assays:
[1] = system: HIV-1 F227L + V106A mutant strain; assay: Anti-HIV assay against double mutant F227L + V106A in MT-4 cells; assay type: cell-based; conditions: Human immunodeficiency virus 1, MT4, read-out: EC50 F227L + V106A
Description: (§2) Evaluation of the antiviral activity of the compounds against HIV in MT-4 cells was performed using the MTT assay as previously described [24, 25]. […] Prior to use in our assays, every freshly grown virus stock was the subject of a genotypic analysis. In addition to the genotypic analysis, every stock was subject to a phenotypic analysis using a panel of relevant reference compounds in MT-4 cells. […] Stock solutions (10× final concentration) of test compounds were added in 25 μL volumes to two series of triplicate wells so as to allow simultaneous evaluation of their effects on mock- and HIV-infected cells at the beginning of each experiment. Serial 5-fold dilutions of test compounds were made directly in flat-bottomed 96-well microtiter trays using a Biomek 3000 robot (Beckman instruments, Fullerton, CA). Untreated HIV- and mock-infected cell samples were included as controls. HIV stock (50 μL) at 100–300 CCID50 (50% cell culture infectious doses) and culture medium (final 200 μL volume per well) were added to either the infected or mock-infected wells of the microtiter tray. Mock-infected cells were used to evaluate the effects of test compounds on uninfected cells in order to assess the cytotoxicity of the test compounds. Exponentially growing MT-4 cells were centrifuged for 5 min at 220× g and the supernatant was discarded. The MT-4 cells were resuspended at 6 × 10^5 cells/mL and 50 μL volumes were transferred to the microtiter tray wells. Five days after infection, the viability of mock- and HIV-infected cells was examined spectrophotometrically using the MTT assay. The MTT assay is based on the reduction of yellow colored 3-(4,5-dimethylthiazol-2-yl)-2,5-diphenyltetrazolium bromide (MTT) (Acros Organics, Geel, Belgium) by mitochondrial dehydrogenase activity in metabolically active cells to a blue-purple formazan that can be measured spectrophotometrically. The absorbances were read in an eight-channel computer-controlled photometer (Infinite M1000, Tecan, Männedorf, Switzerland) at two wavelengths (540 and 690 nm). All data were calculated using the median absorbance value of three wells.

[2] = system: HIV-1 K103N mutant strain; assay: Anti-HIV assay against K103N mutant strain in MT-4 cells; assay type: cell-based; conditions: Human immunodeficiency virus 1, MT4, read-out: EC50 K103N
Description: as §2

[3] = system: HIV-1 K103N + Y181C mutant strain; assay: Anti-HIV assay against double mutant K103N + Y181C in MT-4 cells; assay type: cell-based; conditions: Human immunodeficiency virus 1, MT4, read-out: EC50 K103N + Y181C
Description: as §2

[4] = system: HIV-1 Y181C mutant strain; assay: Anti-HIV assay against Y181C mutant strain in MT-4 cells; assay type: cell-based; conditions: Human immunodeficiency virus 1, MT4, read-out: EC50 Y181C
Description: as §2

HIV-1 IIIB = assay: Anti-HIV assay against wild-type HIV-1 (IIIB) in MT-4 cells, MTT method; assay type: cell-based; conditions: for SI (selectivity index, ratio CC50/EC50 (WT)): CC50/EC50 WT HIV-1 IIIB
Description: (§1) Untreated HIV- and mock-infected cell samples were included as controls. […] Five days after infection, the viability of mock- and HIV-infected cells was examined spectrophotometrically using the MTT assay. […] All data were calculated using the median absorbance value of three wells.

[5] = Cytotoxicity in mock-infected MT-4 cells, MTT method; conditions: human, mock-infected (uninfected) MT-4 cells
Description: as §1

[6] = system: HIV-1 L100I mutant strain; assay: Anti-HIV assay against L100I mutant strain in MT-4 cells; assay type: cell-based; conditions: Human immunodeficiency virus 1, MT4, read-out: EC50 L100I
Description: as §2

[7] = system: HIV-1 E138K mutant strain; assay: Anti-HIV assay against E138K mutant strain in MT-4 cells; assay type: cell-based; conditions: Human immunodeficiency virus 1, MT4, read-out: EC50 E138K
Description: as §2

[8] = Human immunodeficiency virus 1, IIIB, MT4, read-out: EC50 HIV-1 IIIB
[9] = Human immunodeficiency virus 1, MT4, wild-type HIV-1 IIIB, MT-4 cells, protection against HIV-induced cytopathogenicity, read-out: EC50 HIV-1 IIIB

Row | SMILES | EC50 [1] [nM] | EC50 [2] [nM] | EC50 [3] [nM] | EC50 [4] [nM] | melting point [°C] | SI (selectivity index, ratio CC50/EC50 (WT)) (HIV-1 IIIB; MT-4 cells) | EC50 (HIV-1 IIIB; [8]) [nM] | CC50 at 5 days [5] [nM] | EC50 [6] [nM] | EC50 [7] [nM] | EC50 (HIV-1 IIIB; [9]) [nM] | fold increase of antiviral activity compared with A2 (HIV-1 IIIB; WT HIV-1 IIIB, relative to A2) [fold]
1 | COc1cc(C(C#N)c2ccnc(Nc3ccc(C#N)cc3)n2)ccc1C#N (stereo not shown) [Compound A4, 4-(4-(cyano-(3-methoxy-4-cyanophenyl)methyl)-pyrimidin-2-ylamino)benzonitrile] | ≥ 61000 | ≥ 62200 | ≥ 65700 | ≥ 48100 | 156.2 to 157 | 7 | 11700 ± 12100 | 78400 ± 10400 | ≥ 61400 | ≥ 56600 |  | 
2 | O=C1Nc2ccc(Cl)cc2[C@@](C#CC2CC2)(C(F)(F)F)O1 [Efavirenz, efavirenz, reference compound] | 280 ± 70 | 80 ± 10 | 240 ± 60 | 6 ± 1 |  | >3939 |  | > 6300 | 40 ± 8 | 5 ± 2 | 3 ± 1 | 
3 | Cc1c(C(C#N)c2ccnc(Nc3ccc(C#N)cc3)n2)ccc(C#N)c1Cl (stereo not shown) [Compound A11, 4-(4-(cyano-(2-methyl-3-chloro-4-cyanophenyl)methyl)-pyrimidin-2-ylamino)benzonitrile] | > 6110 | > 6110 | > 6110 | > 6110 |  |  | 300 ± 30 | 6100 ± 500 | 2320 ± 480 | > 6110 |  | 
4 | Cc1cc(C#N)ccc1C(C#N)c1ccnc(Nc2ccc(C#N)cc2)n1 (stereo not shown) [Compound A3, 4-(4-(cyano-(2-methyl-4-cyanophenyl)methyl)-pyrimidin-2-ylamino)benzonitrile] | > 10900 | 1960 ± 450 | > 10900 | 1710 ± 130 | 213.5 to 214.6 | 157 | 69 ± 8 | 10900 ± 3600 | 5030 ± 550 | 3040 ± 390 |  | 17
5 | N#Cc1ccc(Nc2nccc(C(C#N)c3ccc(C#N)cc3C(F)(F)F)n2)cc1 (stereo not shown) [Compound A6, 4-(4-(cyano-(2-trifluoromethyl-4-cyanophenyl)methyl)-pyrimidin-2-ylamino)benzonitrile] | > 6230 | > 6230 | > 6230 | 2290 ± 20 | 236.7 to 237.5 | 13 | 490 ± 300 | 6200 ± 1400 | > 6230 | > 6230 |  | 
6 | N#Cc1ccc(Nc2nccc(C(C#N)c3ccc(C#N)cc3Br)n2)cc1 (stereo not shown) [Compound A9, 4-(4-(cyano-(2-bromo-4-cyanophenyl)methyl)-pyrimidin-2-ylamino)benzonitrile] | > 3350 | ≥ 1880 | > 3350 | 1880 ± 420 | 223.5 to 224.7 | 42 | 79 ± 20 | 3400 ± 300 | > 3350 | 2310 ± 20 |  | 
7 | N#Cc1ccc(Nc2nccc(C(C#N)c3ccc(C#N)cc3Cl)n2)cc1 (stereo not shown) [Compound A8, 4-(4-(cyano-(2-chloro-4-cyanophenyl)methyl)-pyrimidin-2-ylamino)benzonitrile] | > 4590 | 2130 ± 220 | > 4590 | 1870 ± 210 |  |  | 63 ± 9 | 4600 ± 2700 | ≥ 2370 | 2200 ± 350 |  | 
8 | Cc1cc(/C=C/C#N)cc(C)c1Nc1ccnc(Nc2ccc(C#N)cc2)n1 [Rilpivirine, rilpivirine, reference compound] | 40 ± 10 | 1 ± 0.2 | 9 ± 2 | 3 ± 1 |  | 3747 | 1.6 ± 0.3 | 5900 ± 300 | 2 ± 1 | 3 ± 1 |  | 
9 | N#Cc1ccc(Nc2nccc(C(C#N)c3ccc(C#N)cc3F)n2)cc1 (stereo not shown) [Compound A7, 4-(4-(cyano-(2-fluoro-4-cyanophenyl)methyl)-pyrimidin-2-ylamino)benzonitrile] | > 10400 | > 10400 | > 10400 | > 10400 | 165.7 to 166.5 | 43 | 240 ± 160 | 10300 ± 4500 | > 10400 | > 10400 |  | 
10 | N#Cc1ccc(Nc2nccc(C(C#N)c3c(Cl)cc(C#N)cc3Cl)n2)cc1 (stereo not shown) [Compound A10, 4-(4-(cyano-(2,6-dichloro-4-cyanophenyl)methyl)-pyrimidin-2-ylamino)benzonitrile] | > 4490 | 1780 ± 120 | > 4490 | 2200 ± 270 | 152.5 to 153.2 | 55 | 82 ± 20 | 4500 ± 1300 | 2320 ± 480 | 2190 ± 220 |  | 
11 | Cc1cc(C#N)c(Br)cc1C(C#N)c1ccnc(Nc2ccc(C#N)cc2)n1 (stereo not shown) [Compound A12, 4-(4-(cyano-(2-methyl-5-bromo-4-cyanophenyl)methyl)-pyrimidin-2-ylamino)benzonitrile] | > 13200 | 2520 ± 420 | > 13200 | 2780 ± 360 |  |  | 240 ± 40 | 13200 ± 1600 | > 13200 | 3730 ± 590 |  | 
12 | Cc1cc(C#N)cc(C)c1Oc1nc(Nc2ccc(C#N)cc2)nc(N)c1Br [Etravirine, etravirine, reference compound] | 14 ± 5 | 3 ± 1 | 40 ± 10 | 17 ± 3 |  |  | 5 ± 1 | > 4600 | 8 ± 2 | 8 ± 4 |  | 
13 | N#Cc1ccc(Nc2nccc(C(C#N)c3ccc(C#N)cc3)n2)cc1 (stereo not shown) [Compound A1, 4-(4-(cyano-(4-cyanophenyl)methyl)-pyrimidin-2-ylamino)benzonitrile] | > 32700 | > 32700 | > 32700 | 11300 ± 1510 |  |  | 3270 ± 2250 | 32700 ± 9900 | ≥ 12300 | > 32700 |  | 
14 | Cc1cc(C(C#N)c2ccnc(Nc3ccc(C#N)cc3)n2)ccc1C#N (stereo not shown) [Compound A2, 4-(4-(cyano-(3-methyl-4-cyanophenyl)methyl)-pyrimidin-2-ylamino)benzonitrile] | > 16100 | > 16100 | > 16100 | > 16100 | 223.7 to 224.9 | 14 | 1170 ± 340 | 16100 ± 3600 | > 16100 | > 16100 |  | 
15 | Cc1ccnc2c1NC(=O)c1cccnc1N2C1CC1 [Nevirapine, nevirapine, reference compound] | ≥ 4280 | 4700 ± 630 | > 15000 |  |  |  |  | > 15000 | 980 ± 390 | 200 ± 150 | 200 ± 100 | 
